PubChem BioAssay AID248 (DTP/NCI, 2004)
Several values for one entry are separate records, joined by “and”; a condition that tells them apart may be missing. Equal values may be shown once. Inconclusive results and toxic doses are left out. No stated cut-off is given here; in the data, active means T/C of 150% or more; inactive means T/C below 125%.

System: L1210 leukemia ip in BDF1 mice, survival T/C
Test: NCI In Vivo Anticancer Drug Screen. Data for tumor model L1210 Leukemia (intraperitoneal) in B6D2F1 (BDF1) mice
Details: endpoint: mean survival time, higher = longer survival
How it was run: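 Read-out is survival time, reported as the treated-group measurement over the vehicle-control measurement.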

[1] = dose: 100.0 mg/kg/injection, schedule: Q01DX009 (ip), vehicle: saline with Tween-80
[2] = dose: 100.0 mg/kg/injection, schedule: Q04DX003 (ip), vehicle: saline with Tween-80
[3] = dose: 200.0 mg/kg/injection, schedule: Q01DX009 (ip), vehicle: saline with Tween-80
[4] = dose: 200.0 mg/kg/injection, schedule: Q04DX003 (ip), vehicle: saline with Tween-80
[5] = dose: 400.0 mg/kg/injection, schedule: Q04DX003 (ip), vehicle: saline with Tween-80
[6] = dose: 100.0 mg/kg/injection, schedule: Q04DX003 (ip), vehicle: saline
[7] = dose: 200.0 mg/kg/injection, schedule: Q04DX003 (ip), vehicle: saline
[8] = dose: 400.0 mg/kg/injection, schedule: Q04DX003 (ip), vehicle: saline
[9] = dose: 100.0 mg/kg/injection, schedule: Q01DX001 (ip), vehicle: saline
[10] = dose: 200.0 mg/kg/injection, schedule: Q01DX001 (ip), vehicle: saline

Measured: T/C

CC(C)OC(=O)c1cc(C(=O)OC(C)C)cc(S(N)(=O)=O)c1
inactive: dose: 100.0 mg/kg/injection, schedule: Q01DX001 (ip), vehicle: other 106 % of control | dose: 200.0 mg/kg/injection, schedule: Q01DX001 (ip), vehicle: other 98 % of control | dose: 400.0 mg/kg/injection, schedule: Q01DX001 (ip), vehicle: other 95 % of control

Cn1nnn2c(-c3ccccc3)nnc12
inactive: [1] 97 % of control | [2] 105 % of control | [3] 105 % of control | [4] 97 % of control | [5] 100 % of control

O=C(/C=C(\C(=O)c1ccccc1)c1ccccc1)c1ccc(Cl)cc1
inactive: dose: 50.0 mg/kg/injection, schedule: Q01DX009 (ip), vehicle: Klucel (hydroxypropylcellulose) (HPC) 103 % of control | dose: 75.0 mg/kg/injection, schedule: Q01DX001 (ip), vehicle: Klucel (hydroxypropylcellulose) (HPC) 100 % of control | dose: 100.0 mg/kg/injection, schedule: Q01DX009 (ip), vehicle: Klucel (hydroxypropylcellulose) (HPC) 92 % of control | dose: 150.0 mg/kg/injection, schedule: Q01DX001 (ip), vehicle: Klucel (hydroxypropylcellulose) (HPC) 95 % of control | dose: 200.0 mg/kg/injection, schedule: Q01DX009 (ip), vehicle: Klucel (hydroxypropylcellulose) (HPC) 94 % of control | dose: 300.0 mg/kg/injection, schedule: Q01DX001 (ip), vehicle: Klucel (hydroxypropylcellulose) (HPC) 108 % of control

CCCCCCCCCCCC(CCCCCCCC)CCCCCCCC
inactive: [6] 94 % of control | [7] 93 % of control | [8] 100 % of control

O=C(OCc1ccccc1CN1CCCC1)c1ccc([N+](=O)[O-])cc1Cl
inactive: dose: 100.0 mg/kg/injection, schedule: Q04DX002 (ip), vehicle: saline 107 % of control | dose: 200.0 mg/kg/injection, schedule: Q04DX002 (ip), vehicle: saline 96 % of control

O=[N+]([O-])/C=C/c1cc2ccccc2[nH]1
inactive: dose: 100.0 mg/kg/injection, schedule: Q01DX009 (ip), vehicle: other 96 % of control | dose: 200.0 mg/kg/injection, schedule: Q01DX009 (ip), vehicle: other 113 % of control | dose: 400.0 mg/kg/injection, schedule: Q01DX009 (ip), vehicle: other 107 % of control

NC(=S)Cc1ccccc1
inactive: dose: 100.0 mg/kg/injection, schedule: Q01DX001 (ip), vehicle: Klucel (hydroxypropylcellulose) (HPC) 91 % of control | dose: 200.0 mg/kg/injection, schedule: Q01DX001 (ip), vehicle: Klucel (hydroxypropylcellulose) (HPC) 87 % of control | dose: 400.0 mg/kg/injection, schedule: Q01DX001 (ip), vehicle: Klucel (hydroxypropylcellulose) (HPC) 100 % of control

Cc1ccc(C(C)(c2ccccc2)C(C)(CC=O)CC(=O)O)cc1 (stereo not given)
inactive: [2] 92 % of control | [4] 92 % of control | [5] 96 % of control

CCNC(C1CCCCC1)C(C)OC(=O)c1ccc(N)cc1 (stereo not given)
inactive: dose: 75.0 mg/kg/injection, schedule: Q01DX001 (ip), vehicle: saline 98 % of control

C[CH2][Sb]([CH2]C)([CH2]C)([O]C(C)=O)[O]C(C)=O
inactive: dose: 5.0 mg/kg/injection, schedule: Q04DX002 (ip), vehicle: saline with Tween-80 97 % of control | dose: 10.0 mg/kg/injection, schedule: Q04DX002 (ip), vehicle: saline with Tween-80 97 % of control | dose: 20.0 mg/kg/injection, schedule: Q04DX002 (ip), vehicle: saline with Tween-80 104 % of control

COP(=O)(OC)C(OC(=O)C(C)(C)SC(C)=S)=C(C)C
inactive: [2] 103 % of control | [4] 96 % of control | [5] 94 % of control

CC(=O)CC(=O)Nc1ccc(Cc2ccc(NC(=O)CC(C)=O)c(C)c2)cc1C
inactive: [9] 88 % of control | [10] 94 % of control | dose: 400.0 mg/kg/injection, schedule: Q01DX001 (ip), vehicle: saline 94 % of control

N=C(OCCCO)C(=N)OCCCO
inactive: [2] 115 % of control | [4] 102 % of control | [5] 96 % of control

NC(N)=NC(N)=NCCc1ccccc1
inactive: [9] 94 % of control | [10] 94 % of control

CN1CCN(C(=S)[S-])CC1.CN1CCN(C(=S)[S-])CC1.[Zn]
inactive: dose: 2.5 mg/kg/injection, schedule: Q01DX009 (ip), vehicle: acetone 96 % of control | dose: 5.0 mg/kg/injection, schedule: Q01DX009 (ip), vehicle: acetone 96 % of control | dose: 5.0 mg/kg/injection, schedule: Q04DX003 (ip), vehicle: acetone 100 % of control | dose: 10.0 mg/kg/injection, schedule: Q01DX001 (ip), vehicle: saline 91 % of control | dose: 10.0 mg/kg/injection, schedule: Q01DX009 (ip), vehicle: acetone 108 % of control | dose: 10.0 mg/kg/injection, schedule: Q04DX003 (ip), vehicle: acetone 92 % of control | dose: 20.0 mg/kg/injection, schedule: Q01DX001 (ip), vehicle: saline 91 % of control | dose: 20.0 mg/kg/injection, schedule: Q04DX003 (ip), vehicle: acetone 92 % of control

CCC(Cl)COP(=O)(CC(Cl)CC)O/C(C)=C(\C)OP(=O)(OCC(Cl)CC)OCC(Cl)CC (stereo not given)
inactive: dose: 25.0 mg/kg/injection, schedule: Q04DX002 (sc), vehicle: olive oil, sesame oil, peanut oil 104 % of control | dose: 50.0 mg/kg/injection, schedule: Q04DX002 (sc), vehicle: olive oil, sesame oil, peanut oil 93 % of control | dose: 100.0 mg/kg/injection, schedule: Q04DX002 (sc), vehicle: olive oil, sesame oil, peanut oil 107 % of control

O=c1oc2c(-c3ccccc3)cccc2c(O)c1-c1ccccc1
inactive: dose: 25.0 mg/kg/injection, schedule: Q04DX003 (ip), vehicle: saline with Tween-80 96 % of control | dose: 50.0 mg/kg/injection, schedule: Q04DX003 (ip), vehicle: saline with Tween-80 101 % of control | [2] 93 % of control | [6] 95 % of control | [7] 93 % of control | [8] 93 % of control

COC(=O)C(Br)c1cccc(OC)c1 (stereo not given)
inactive: dose: 100.0 mg/kg/injection, schedule: Q01DX009 (ip), vehicle: saline sonified 100 % of control | dose: 100.0 mg/kg/injection, schedule: Q04DX003 (ip), vehicle: saline sonified 97 % of control | dose: 200.0 mg/kg/injection, schedule: Q01DX009 (ip), vehicle: saline sonified 120 % of control | dose: 200.0 mg/kg/injection, schedule: Q04DX003 (ip), vehicle: saline sonified 101 % of control | dose: 400.0 mg/kg/injection, schedule: Q01DX009 (ip), vehicle: saline sonified 105 % of control | dose: 400.0 mg/kg/injection, schedule: Q04DX003 (ip), vehicle: saline sonified 101 % of control

COc1ccc(OC)c(NC(=O)c2cc3ccccc3cc2OC(=O)Nc2cc(Cl)ccc2OC)c1
inactive: [1] 94 % of control | dose: 100.0 mg/kg/injection, schedule: Q04DX002 (ip), vehicle: saline with Tween-80 103 % of control and 112 % of control | [2] 103 % of control | [3] 98 % of control and 89 % of control | dose: 200.0 mg/kg/injection, schedule: Q04DX002 (ip), vehicle: saline with Tween-80 97 % of control and 87 % of control | [4] 102 % of control | dose: 400.0 mg/kg/injection, schedule: Q01DX009 (ip), vehicle: saline with Tween-80 102 % of control and 89 % of control | dose: 400.0 mg/kg/injection, schedule: Q04DX002 (ip), vehicle: saline with Tween-80 101 % of control and 91 % of control | [5] 97 % of control

CCC[n+]1nsc2ccccc21
inactive: [9] 101 % of control

O=C(NC1CCC12CC2)c1ccc2ccccc2c1 (stereo not given)
inactive: dose: 37.5 mg/kg/injection, schedule: Q04DX002 (ip), vehicle: saline with Tween-80 97 % of control | dose: 75.0 mg/kg/injection, schedule: Q04DX002 (ip), vehicle: saline with Tween-80 93 % of control | dose: 150.0 mg/kg/injection, schedule: Q04DX002 (ip), vehicle: saline with Tween-80 93 % of control | dose: 300.0 mg/kg/injection, schedule: Q04DX002 (ip), vehicle: saline with Tween-80 93 % of control
